Measured values: patent US20240316054A1, “NOVEL PLK1 PROTEIN DEGRADATION-INDUCING COMPOUND” (UPPTHERA, INC., priority 2021, published 2024)

How the values were obtained:
PLK1 = biological target: T1, PLK1 (Homo sapiens, UniProt P53350); experiment: Luciferase (HiBit) assay of PLK1 degradation in HeLa LgBit (Plk1-HiBit KI) cells; assay type: cell-based; conditions: for PLK1 (luminescence value): released after thymidine block, compound 300 nM, luminescence at 9 hours, DMSO-only control
T1 construct: endogenous in cells; host or cells: HeLa cells stably expressing LgBit, with CRISPR/Cas9 knock-in of HiBit at the PLK1 C-terminus
T1 sequence (P53350 whole entry): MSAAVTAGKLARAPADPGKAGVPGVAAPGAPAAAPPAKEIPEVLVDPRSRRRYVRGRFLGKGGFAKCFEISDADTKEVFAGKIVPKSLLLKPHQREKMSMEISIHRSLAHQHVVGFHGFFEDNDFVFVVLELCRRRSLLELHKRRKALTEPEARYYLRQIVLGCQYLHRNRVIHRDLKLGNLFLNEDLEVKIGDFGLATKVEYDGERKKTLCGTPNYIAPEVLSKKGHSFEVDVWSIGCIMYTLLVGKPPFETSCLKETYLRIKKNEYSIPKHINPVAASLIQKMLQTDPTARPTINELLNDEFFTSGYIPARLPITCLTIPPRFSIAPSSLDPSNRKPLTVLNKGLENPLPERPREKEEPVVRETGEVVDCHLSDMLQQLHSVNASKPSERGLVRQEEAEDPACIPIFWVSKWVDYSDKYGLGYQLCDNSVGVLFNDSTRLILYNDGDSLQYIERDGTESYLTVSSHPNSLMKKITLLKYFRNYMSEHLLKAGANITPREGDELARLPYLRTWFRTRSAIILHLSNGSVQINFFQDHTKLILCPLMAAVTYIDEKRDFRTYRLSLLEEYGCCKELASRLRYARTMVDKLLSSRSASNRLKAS
Description: (§1) Cell lines were constructed by transfecting LgBit vector into HeLa and HEK293T cell lines to be stably expressed. Then, gRNA and a donor were created to express the HiBit amino acid sequence behind the C-terminus of the PLK1 and BRD4 proteins contained in each cell, and then inserted into the cells together with a vector capable of expressing CRISPR/Cas9. Only cells that had undergone knock-in after completion of insertion were selected and passaged to be used.
(§2) Compounds according to Comparative Examples and Examples were completely dissolved in DMSO (Sigma-Aldrich Cat. No. D2438, Lot. No. RNBJ6524) and used in the following experiments. The compound of Comparative Example was the HBL-4 compound disclosed in the document (see Mu et al., Biochem Biophys Res Commun., 2020, 521(4): 833), which targets PLK1 and BRD4 like the compounds of the present invention, and the DMSO-only treatment group was used as the control group.
As to HeLa LgBit (Plk1-HiBit KI), cells were released after thymidine block, and then treated with compounds, and the process was as follows. Thymidine (Sigma-Aldrich Cat. No. T9250-5G) was completely dissolved in DW and used in the experiment. For thymidine block, cells were treated with 2 mM thymidine and incubated for 24 hours. For release and chemical treatment, the medium was suctioned and washed with 1×PBS. TyppLE™ was added and the cells were incubated for 5 min in a 37° C. CO2 incubator. Cells neutralized by adding complete medium were counted using the counter. For each well of a 96-well white plate (SPL), 3.3×10^4 cells were seeded in a total culture medium volume of 150 μl and incubated in a CO2 incubator.
(§3) Each cell line was incubated in a CO2 incubator for 18 hours, and then Endurazine was added to each well to reach 4% of the total volume. Here, the concentration of each compound after the addition was 300 nM for HeLa LgBit (Plk1-HiBit KI) and 100 nM for HEK293T LgBit (BRD4-HiBit KI). Then, the wavelength of the plate reader was set to 470 to 480 nm, and luminescence was tracked in real time.

BRD4 = biological target: T2, BRD4 (Homo sapiens, UniProt O60885); experiment: Luciferase (HiBit) assay of BRD4 degradation in HEK293T LgBit (BRD4-HiBit KI) cells; assay type: cell-based; conditions: for BRD4 (luminescence value): compound 100 nM, luminescence at 8 hours, DMSO-only control
T2 construct: endogenous in cells; host or cells: HEK293T cells stably expressing LgBit, with CRISPR/Cas9 knock-in of HiBit at the BRD4 C-terminus
Description: as §1, §2
As to HEK293T LgBit (BRD4-HiBit KI), 4×10^4 cells were seeded in each well of a 96-well white plate (SPL) and cultured in a total culture medium volume of 150 μl.
as §3

Row | SMILES | PLK1 (luminescence value) (PLK1) | BRD4 (luminescence value) (BRD4) | PLK1 degradation level (PLK1; 300 nM, 9 hours) [%] | BRD4 degradation level (BRD4; 100 nM, 8 hours) [%]
1 | CC[C@@H]1C(=O)N(C)c2cnc(Nc3ccc(C(=O)N[C@H]4CC[C@H](N5CCN(CCOCCNc6cccc7c6C(=O)N(C6CCC(=O)NC6=O)C7=O)CC5)CC4)cc3OC)nc2N1C1CCCC1 (stereo partly drawn) [Compound 10, 4-(((R)-8-cyclopentyl-7-ethyl-5-methyl-6-oxo-5,6,7,8-tetrahydropteridin-2-yl)amino)-N-((1r,4R)-4-(4-(2-(2-((2-(2,6-dioxopiperidin-3-yl)-1,3-dioxoisoindolin-4-yl)amino)ethoxy)ethyl)piperazin-1-yl)cyclohexyl)-3-methoxybenzamide] | 0.343 | 0.629 | – | –
2 | CC[C@@H]1C(=O)N(C)c2cnc(Nc3ccc(C(=O)N[C@H]4CCN(C(=O)CCC(=O)N5CCN(c6cccc7c6C(=O)N(C6CCC(=O)NC6=O)C7=O)CC5)C4)cc3OC)nc2N1C1CCCC1 (stereo partly drawn) [Compound 6, 4-(((R)-8-cyclopentyl-7-ethyl-5-methyl-6-oxo-5,6,7,8-tetrahydropteridin-2-yl)amino)-N-((3S)-1-(4-(4-(2-(2,6-dioxopiperidin-3-yl)-1,3-dioxoisoindolin-4-yl)piperazin-1-yl)-4-oxobutanoyl)pyrrolidin-3-yl)-3-methoxybenzamide] | 0.313 | 0.731 | – | –
3 | CC[C@@H]1C(=O)N(C)c2cnc(Nc3ccc(C(=O)NC4CCN(C(=O)CCN5CCN(c6cccc7c6C(=O)N(C6CCC(=O)NC6=O)C7=O)CC5)CC4)cc3OC)nc2N1C1CCCC1 (stereo partly drawn) [Compound 7, 4-(((R)-8-cyclopentyl-7-ethyl-5-methyl-6-oxo-5,6,7,8-tetrahydropteridin-2-yl)amino)-N-(1-(3-(4-(2-(2,6-dioxopiperidin-3-yl)-1,3-dioxoisoindolin-4-yl)piperazin-1-yl)propanoyl)piperidin-4-yl)-3-methoxybenzamide] | 0.120 | 0.488 | – | –
4 | CC[C@@H]1C(=O)N(C)c2cnc(Nc3ccc(C(=O)NC4CCN(C(=O)CCCNc5cccc6c5C(=O)N(C5CCC(=O)NC5=O)C6=O)CC4)cc3OC)nc2N1C1CCCC1 (stereo partly drawn) [Compound 8, 4-(((R)-8-cyclopentyl-7-ethyl-5-methyl-6-oxo-5,6,7,8-tetrahydropteridin-2-yl)amino)-N-(1-(4-((2-(2,6-dioxopiperidin-3-yl)-1,3-dioxoisoindolin-4-yl)amino)butanoyl)piperidin-4-yl)-3-methoxybenzamide] | 0.204 | 0.394 | – | –

Now from value to compound:

Row | PLK1 (luminescence value) (PLK1) | BRD4 (luminescence value) (BRD4) | PLK1 degradation level (PLK1; 300 nM, 9 hours) [%] | BRD4 degradation level (BRD4; 100 nM, 8 hours) [%] | SMILES
5 | 0.148 | 0.223 | ≥ 80 | ≥ 80 | CC[C@@H]1C(=O)N(C)c2cnc(Nc3ccc(C(=O)NCCOCCOCCNc4cccc5c4C(=O)N(C4CCC(=O)NC4=O)C5=O)cc3OC)nc2N1C1CCCC1 (stereo partly drawn) [Comparative Example 1, reference compound]
6 | 0.140 | 0.491 | – | – | CC[C@@H]1C(=O)N(C)c2cnc(Nc3ccc(C(=O)NCCOCCOCCOCCOCCNc4cccc5c4C(=O)N(C4CCC(=O)NC4=O)C5=O)cc3OC)nc2N1C1CCCC1 (stereo partly drawn) [Compound 5, 4-(((R)-8-cyclopentyl-7-ethyl-5-methyl-6-oxo-5,6,7,8-tetrahydropteridin-2-yl)amino)-N-(14-((2-(2,6-dioxopiperidin-3-yl)-1,3-dioxoisoindolin-4-yl)amino)-3,6,9,12-tetraoxatetradecyl)-3-methoxybenzamide]
7 | 0.208 | 0.692 | – | – | CC[C@@H]1C(=O)N(C)c2cnc(Nc3ccc(C(=O)NCCOCCOCCNc4cccc5c4C(=O)N(C4CCC(=O)NC4=O)C5=O)cc3)nc2N1C1CCCC1 (stereo partly drawn) [Compound 4, 4-(((R)-8-cyclopentyl-7-ethyl-5-methyl-6-oxo-5,6,7,8-tetrahydropteridin-2-yl)amino)-N-(2-(2-(2-((2-(2,6-dioxopiperidin-3-yl)-1,3-dioxoisoindolin-4-yl)amino)ethoxy)ethoxy)ethyl)benzamide]
8 | 0.207 | 0.484 | – | – | COc1cc(C(=O)NCCOCCOCCNc2cccc3c2C(=O)N(C2CCC(=O)NC2=O)C3=O)ccc1Nc1ncc2c(n1)N(C1CCCCC1)[C@H](C)C(=O)N2C (stereo partly drawn) [Compound 9, 4-(((R)-8-cyclohexyl-5,7-dimethyl-6-oxo-5,6,7,8-tetrahydropteridin-2-yl)amino)-N-(2-(2-(2-((2-(2,6-dioxopiperidin-3-yl)-1,3-dioxoisoindolin-4-yl)amino)ethoxy)ethoxy)ethyl)-3-methoxybenzamide]
